The values below are quoted from earlier work in patent US8568753B2, “Delivery system” (Starpharma Pty Limited, priority 2005, dated 2013).

The data set deals with herpes simplex virus type 2 (HSV-2), Strain G. The note with it: previous studies.

In the case of nonoxynol-9, the “relative susceptibility to HSV-2 infection vs control animals” value is given as 29.7 times. In addition, under “low-dose inoculum”, the “animals infected with HSV-2” value is 29 out of 42.
